Assay results reported in US6395745B1, “Alkaloid halide salts of swainsonine and methods of use” (priority 1997, dated 2002).

Assays:
[1] = Toxicology studies (acute and chronic); assay type: in vivo
Method: Pharmacological and toxicological studies were conducted with swainsonine hydrochloride. In particular, the following were investigated: (a) pharmacokinetics of the compound in rats and monkeys; (b) acute toxicity at significant multiples of the intended human dose; (c) the toxicity profile of the compound was compared to the literature profile for swainsonine free base; (d) potential for genotoxicity; (e) time course, dose-dependence, tissue sensitivity and reversibility of oligosaccharide accumulation in tissue; and (f) serum AST and relationship to liver histology.

[2] = Accelerated stability of stressed solid samples, percentage remaining by HPLC; assay type: physicochemical
Description: Samples of swainsonine free base synthesized using synthetic routes developed by Dr. David Dime (Toronto Research Chemicals, Toronto, Ontario) and Dr. William Pearson (University of Michigan, Ann Arbor, Mich.), were recrystallized to obtain either the hydrochloride salt, the hydrobromide salt or the free base of swainsonine. Samples were weighed and exposed to the conditions described below.
To model long-term stability or shelf life, various conditions were used to accelerate the decomposition process. Samples of crystalline prism swainsonine hydrochloride salt and swainsonine free base (a white, fluffy powder obtained from swainsonine hydrochloride were recrystallized from chloroform-methanol-diethyl ether) were weighed and exposed to conditions described below (stressed samples). Unstressed samples were prepared at 1 mg/ml concentration and chromatographed in sextuplicate on each run. After the indicated time interval each stressed sample was diluted with mobile phase at the same concentration as the unstressed sample. The percentage remaining swainsonine hydrochloride or swainsonine free base was calculated based on the percentage of either the hydrochloride or the free base in the unstressed sample.
The conditions included (a) UV light for 7 days; (b) 105° C. with atmospheric oxygen for seven days (*=average of two samples); (c) 105° C. under nitrogen for seven days (*=average of two samples); (d) 70° C. with low humidity for seven days; and (e) 40° C. with 75% relative humidity for seven days. Other tests include (f) UV for 24 hours; (g) 100° C. aqueous solution for two hours; (h) aqueous acidic treatment for 24 hours; (i) aqueous alkali treatment for 4 hours; and (j) (aqueous) 3% hydrogen peroxide for 4 hours. […] The physical properties of swainsonine hydrochloride compared to the free base and swainsonine hydrobromide, and swainsonine hydrofluoride are shown in Table 5.

**Q.** Which results are given for Cl.O[C@H]1[C@H]2[C@H](O)CCCN2C[C@@H]1O [swainsonine hydrochloride, (−)-(1S,2S,8R,8aR)-1,2,8-trihydroxyoctahydro-indolizidine hydrochloride salt]?
**A.** dose at which acute toxicity occurs ([1]; acute toxicity): 13,000 times the intended human dose; sites of oligomannoside accumulation in lysosomes ([1]; chronic studies, doses proposed for humans): thyroid and also possibly the kidney could be the sites of reversible accumulation; percentage remaining, condition (e) ([2]; 40° C. with 75% relative humidity for seven days): 101.9%; percentage remaining, condition (d) ([2]; 70° C. with low humidity for seven days): 103.2%; percentage remaining, condition (c) ([2]; 105° C. under nitrogen for seven days (*=average of two samples)): 101.2%; percentage remaining, condition (b) ([2]; 105° C. with atmospheric oxygen for seven days (*=average of two samples)): 100.9%; percentage remaining, condition (a) ([2]; UV light for 7 days): 99.4%
